# In patent US10392347B2, “2,4-dihydroxy-nicotinamides as APJ agonists” (BRISTOL-MYERS SQUIBB COMPANY, priority 2015, dated 2019):
# Read-outs that look alike come from different tables or passages of the source.
# Biological target: T1, human APJ receptor (Homo sapiens, UniProt P35414)
# T1 construct: expressed in transfected cells
# T1 sequence (P35414 1-380): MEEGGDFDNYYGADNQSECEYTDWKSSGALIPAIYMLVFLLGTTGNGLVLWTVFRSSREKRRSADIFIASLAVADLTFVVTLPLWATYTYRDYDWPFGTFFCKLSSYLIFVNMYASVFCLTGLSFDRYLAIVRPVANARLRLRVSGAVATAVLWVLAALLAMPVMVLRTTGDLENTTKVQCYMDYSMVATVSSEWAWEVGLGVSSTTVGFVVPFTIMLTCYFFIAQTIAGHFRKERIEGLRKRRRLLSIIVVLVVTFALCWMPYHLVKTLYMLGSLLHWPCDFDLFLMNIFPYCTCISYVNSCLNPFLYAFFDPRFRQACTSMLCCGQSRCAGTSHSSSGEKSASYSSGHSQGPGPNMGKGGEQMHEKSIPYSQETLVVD
# Experiment: Intracellular cAMP accumulation assay (APJ hcAMP, HTRF)
# Type: cell-based
# Details: HEK293 cells stably expressing human APJ
# Procedure: Intracellular cAMP Accumulation Assay
# HEK293 cells stably expressing human APJ receptor were used to assess the activity of compounds. Cultured cells were detached and resuspended in the cAMP Homogeneous Time-Resolved Fluorescence (HTRF) assay buffer (Cisbio cat; #62AM4PEJ). […] Serial dilutions of a compound together with assay buffer containing […] and 2 μM forskolin were added to each well containing 5,000 cells and incubated for 30 minutes at room temperature. Subsequently, cAMP D2 reagent was added in the lysis buffer followed by the EuK antibody (Cisbio; cat #62AM4PEJ) and incubated for 60 min. The fluorescence emission ratio was measured using fluorometer. The intracellular cAMP concentrations (compound-stimulated inhibition of forskolin-mediated cAMP production) were calculated by extrapolation from a standard curve using known cAMP concentrations. The EC50 values were obtained by fitting the data to a sigmoidal concentration-response curve with variable slope.
# The EC50 value of each compound is presented at the end of the example description.
# The biological activity of the exemplified compounds of this invention determined by the assay described above is shown at the end of each example.
# [1] = Table 2, forskolin-stimulated cAMP, read-out: APJ cAMP EC50
# [2] = Table 1, forskolin-stimulated cAMP, read-out: APJ cAMP EC50
EC50 [2],SMILES,also measured
–,"CCCCc1nc(O)c(C(=O)N2CCCC2c2ccccn2)c(O)c1-c1c(OC)cccc1OC (racemic) [Example 8, 6-butyl-5-(2,6-dimethoxyphenyl)-3-[2-(pyridin-2-yl)pyrrolidine-1-carbonyl]pyridine-2,4-diol]",EC50 [1]: 0.01 to 10 nM
–,"CCCCc1nc(O)c(C(=O)N2CCC(c3nc(-c4cc(C)c(OC)cc4Cl)c(C)s3)C2)c(O)c1-c1c(OC)cccc1OC (racemic) [Example 9, 6-butyl-3-{3-[4-(2-chloro-4-methoxy-5-methylphenyl)-5-methyl-1,3-thiazol-2-yl]pyrrolidine-1-carbonyl}-5-(2,6-dimethoxyphenyl)pyridine-2,4-diol]",EC50 [1]: 0.01 to 10 nM
–,"CCCCc1nc(O)c(C(=O)N2CCC(c3cccc(Cl)c3)C2)c(O)c1-c1c(OC)cccc1OC (single isomer, unassigned) [Example 37, 6-butyl-3-[3-(3-chlorophenyl)pyrrolidine-1-carbonyl]-5-(2,6-dimethoxyphenyl)pyridine-2,4-diol]",EC50 [1]: 0.01 to 10 nM
–,"CCCCc1nc(O)c(C(=O)N2CCC(c3cccc(Cl)c3)C2)c(O)c1-c1c(OC)cccc1OC (single isomer, unassigned) [Example 38, 6-butyl-3-[3-(3-chlorophenyl)pyrrolidine-1-carbonyl]-5-(2,6-dimethoxyphenyl)pyridine-2,4-diol]",EC50 [1]: 0.01 to 10 nM
–,"CCCCc1nc(O)c(C(=O)N2CCC(c3ccc(F)cc3)C2)c(O)c1-c1c(OC)cccc1OC (single isomer, unassigned) [Example 39, 6-butyl-5-(2,6-dimethoxyphenyl)-3-[3-(4-fluorophenyl)pyrrolidine-1-carbonyl]pyridine-2,4-diol]",EC50 [1]: 0.01 to 10 nM
–,"CCCCc1nc(O)c(C(=O)N2CCC(c3ccc(F)cc3)C2)c(O)c1-c1c(OC)cccc1OC (single isomer, unassigned) [Example 40, 6-butyl-5-(2,6-dimethoxyphenyl)-3-[3-(4-fluorophenyl)pyrrolidine-1-carbonyl]pyridine-2,4-diol]",EC50 [1]: 0.01 to 10 nM
–,"CCCCc1nc(O)c(C(=O)N2CCC(c3ccc(Cl)cn3)C2)c(O)c1-c1c(OC)cccc1OC (single isomer, unassigned) [Example 74, (6-butyl-5-(2,6-dimethoxyphenyl)-2,4-dihydroxypyridin-3-yl)(3-(5-chloropyridin-2-yl)pyrrolidin-1-yl)methanone]",EC50 (read-out: Human APJ cAMP EC50 Potency range): 0.01 to 10 nM
–,"CCNCc1nc(O)c(C(=O)N2CCC(c3cccc(F)c3)C2)c(O)c1-c1c(OC)cccc1OC (single isomer, unassigned) [Example 149, 5-(2,6-dimethoxyphenyl)-6-[(ethylamino)methyl]-3-[3-(3-fluorophenyl)pyrrolidine-1-carbonyl]pyridine-2,4-diol]",EC50 (read-out: Human cAMP Potency range): 100 to 300 nM
100 to 300 nM,"CCCCc1nc(O)c(C(=O)N(C)CCCCc2ccccc2)c(O)c1-c1c(OC)cccc1OC [Example 2, 6-butyl-5-(2,6-dimethoxyphenyl)-2,4-dihydroxy-N-methyl-N-(4-phenylbutyl)pyridine-3-carboxamide]",–
100 to 300 nM,"CCCCc1nc(O)c(C(=O)N2CCN(c3nccn3C)CC2)c(O)c1-c1c(OC)cccc1OC [Example 3, 6-butyl-5-(2,6-dimethoxyphenyl)-3-[4-(1-methyl-1H-imidazol-2-yl)piperazine-1-carbonyl]pyridine-2,4-diol]",–
100 to 300 nM,"CCCCc1nc(O)c(C(=O)N2CCC(O)(c3cccnc3)CC2)c(O)c1-c1c(OC)cccc1OC [Example 4, 6-butyl-5-(2,6-dimethoxyphenyl)-3-[4-hydroxy-4-(pyridin-3-yl)piperidine-1-carbonyl]pyridine-2,4-diol]",–
10 to 100 nM,"CCCCc1nc(O)c(C(=O)N2CCC(c3nc(CCC)no3)CC2)c(O)c1-c1c(OC)cccc1OC [Example 5, 6-butyl-5-(2,6-dimethoxyphenyl)-3-[4-(3-propyl-1,2,4-oxadiazol-5-yl)piperidine-1-carbonyl]pyridine-2,4-diol]",–
10 to 100 nM,"CCCCc1nc(O)c(C(=O)N2CCN(c3ccc(Cl)cn3)CC2)c(O)c1-c1c(OC)cccc1OC [Example 6, 6-butyl-3-[4-(5-chloropyridin-2-yl)piperazine-1-carbonyl]-5-(2,6-dimethoxyphenyl)pyridine-2,4-diol]",–
100 to 300 nM,"CCCCc1nc(O)c(C(=O)N2CCN(c3ccc(OCCOC)cc3)CC2)c(O)c1-c1c(OC)cccc1OC [Example 7, 6-butyl-5-(2,6-dimethoxyphenyl)-3-{4-[4-(2-methoxyethoxy)phenyl]piperazine-1-carbonyl}pyridine-2,4-diol]",–
10 to 100 nM,"CCCCc1nc(O)c(C(=O)N2CCN(c3ccc(NC(=O)OC)cc3)CC2)c(O)c1-c1c(OC)cccc1OC [Example 10, methyl N-(4-{4-[6-butyl-5-(2,6-dimethoxyphenyl)-2,4-dihydroxypyridine-3-carbonyl]piperazin-1-yl}phenyl)carbamate]",–
10 to 100 nM,"CCCCc1nc(O)c(C(=O)N2CCN(c3ncccc3C(F)(F)F)CC2)c(O)c1-c1c(OC)cccc1OC [Example 11, 6-butyl-5-(2,6-dimethoxyphenyl)-3-{4-[3-(trifluoromethyl)pyridin-2-yl]piperazine-1-carbonyl}pyridine-2,4-diol]",–
0.01 to 10 nM,"CCCCc1nc(O)c(C(=O)N2CCN(c3ccccc3OC)CC2)c(O)c1-c1c(OC)cccc1OC [Example 12, 6-butyl-5-(2,6-dimethoxyphenyl)-3-[4-(2-methoxyphenyl)piperazine-1-carbonyl]pyridine-2,4-diol]",–
10 to 100 nM,"CCCCc1nc(O)c(C(=O)N2CCN(c3nccc(C(F)(F)F)n3)CC2)c(O)c1-c1c(OC)cccc1OC [Example 13, 6-butyl-5-(2,6-dimethoxyphenyl)-3-{4-[4-(trifluoromethyl)pyrimidin-2-yl]piperazine-1-carbonyl}pyridine-2,4-diol]",–
0.01 to 10 nM,"CCCCc1nc(O)c(C(=O)N2CCC(Cc3ccccc3)CC2)c(O)c1-c1c(OC)cccc1OC [Example 14, 3-(4-benzylpiperidine-1-carbonyl)-6-butyl-5-(2,6-dimethoxyphenyl)pyridine-2,4-diol]",–
0.01 to 10 nM,"CCCCc1nc(O)c(C(=O)N(C)CCc2ccccn2)c(O)c1-c1c(OC)cccc1OC [Example 15, 6-butyl-5-(2,6-dimethoxyphenyl)-2,4-dihydroxy-N-methyl-N-[2-(pyridin-2-yl)ethyl]pyridine-3-carboxamide]",–
0.01 to 10 nM,"CCCCc1nc(O)c(C(=O)N2CCN(C(c3ccccc3)c3ccccc3)CC2)c(O)c1-c1c(OC)cccc1OC [Example 16, 6-butyl-5-(2,6-dimethoxyphenyl)-3-[4-(diphenylmethyl)piperazine-1-carbonyl]pyridine-2,4-diol]",–
10 to 100 nM,"CCCCc1nc(O)c(C(=O)N2CCC(c3[nH]cnc3C)CC2)c(O)c1-c1c(OC)cccc1OC [Example 17, 6-butyl-5-(2,6-dimethoxyphenyl)-3-[4-(4-methyl-1H-imidazol-5-yl)piperidine-1-carbonyl]pyridine-2,4-diol]",–
10 to 100 nM,"CCCCc1nc(O)c(C(=O)N2CCN(c3ccc(OC)cc3)CC2)c(O)c1-c1c(OC)cccc1OC [Example 18, 6-butyl-5-(2,6-dimethoxyphenyl)-3-[4-(4-methoxyphenyl)piperazine-1-carbonyl]pyridine-2,4-diol]",–
10 to 100 nM,"CCCCc1nc(O)c(C(=O)N2CCC(c3ccccc3OC)CC2)c(O)c1-c1c(OC)cccc1OC [Example 19, 6-butyl-5-(2,6-dimethoxyphenyl)-3-[4-(2-methoxyphenyl)piperidine-1-carbonyl]pyridine-2,4-diol]",–
10 to 100 nM,"CCCCc1nc(O)c(C(=O)N2CCC(c3cc(-c4ccco4)n[nH]3)CC2)c(O)c1-c1c(OC)cccc1OC [Example 20, 6-butyl-5-(2,6-dimethoxyphenyl)-3-{4-[3-(furan-2-yl)-1H-pyrazol-5-yl]piperidine-1-carbonyl}pyridine-2,4-diol]",–
100 to 300 nM,"CCCCc1nc(O)c(C(=O)N2CCN(c3cccnn3)CC2)c(O)c1-c1c(OC)cccc1OC [Example 21, 6-butyl-5-(2,6-dimethoxyphenyl)-3-[4-(pyridazin-3-yl)piperazine-1-carbonyl]pyridine-2,4-diol]",–
100 to 300 nM,"CCCCc1nc(O)c(C(=O)N2CCN(c3ccncc3)CC2)c(O)c1-c1c(OC)cccc1OC [Example 22, 6-butyl-5-(2,6-dimethoxyphenyl)-3-[4-(pyridin-4-yl)piperazine-1-carbonyl]pyridine-2,4-diol]",–
10 to 100 nM,"CCCCc1nc(O)c(C(=O)N2CCC(c3ccccc3Cl)CC2)c(O)c1-c1c(OC)cccc1OC [Example 23, 6-butyl-3-[4-(2-chlorophenyl)piperidine-1-carbonyl]-5-(2,6-dimethoxyphenyl)pyridine-2,4-diol]",–
10 to 100 nM,"CCCCc1nc(O)c(C(=O)N2CCC(c3ccc(C(N)=O)cc3)CC2)c(O)c1-c1c(OC)cccc1OC [Example 24, 4-{1-[6-butyl-5-(2,6-dimethoxyphenyl)-2,4-dihydroxypyridine-3-carbonyl]piperidin-4-yl}benzamide]",–
